Source: patent US20200172966A1 (YAMAGUCHI UNIVERSITY, priority 2015, published 2020)

Experiment: incidence of side effect (hematologic toxicity) by single nucleotide polymorphism genotype in Japanese patients with colon cancer who had received irinotecan
Assay type: in vivo, human
Protocol: By using TaqMan SNP Assays Human (manufactured by Applied Biosystems, Inc.) and LightCycler (R) 480 Probe Master (manufactured by Roche Diagnostics, Inc.), Universal ProbeLibrary (manufactured by Roche Diagnostics, Inc.), and LightCycler 480 System II (manufactured by Roche Diagnostics, Inc.), 10 ng of genomic DNA was subjected to genotyping. After incubation at 95° C. for 10 min, the sample was subjected to PCR amplification with 55 cycles for rs1980576, rs2272761, and rs9425343, 45 cycles for rs12577167, rs7265854, and rs1135640, or 40 cycles for rs1547 (1 cycle consisted of 92° C. for 15 sec and 60° C. for 60 sec). The fluorescence emitted from the PCR products were measured.
The “Odds ratio” in Table 3 refers to an odds ratio indicating the occurrence of a side effect as calculated using a Fisher's exact test on a single nucleotide polymorphism being homozygous for a wild-type or homozygous for a variant type.
The term (P value/C.-A.) in Table 4 is the same as in Table 2. […] The term “Odds ratio” in Table 5 is the same as in Table 3.

[1] = N = 72, homozygous UGT1A1*28 excluded (Table 5), ACOX1 rs1135640 G/G
[2] = N = 72, homozygous UGT1A1*28 excluded, ACOX1 rs1135640 C/C, C/G
[3] = N = 72, homozygous UGT1A1*28 excluded, APCDD1L rs1980576 A/A
[4] = N = 72, homozygous UGT1A1*28 excluded, APCDD1L rs1980576 A/A, A/G
[5] = N = 72, homozygous UGT1A1*28 excluded, APCDD1L rs1980576 A/G, G/G
[6] = N = 72, homozygous UGT1A1*28 excluded, APCDD1L rs1980576 G/G
[7] = N = 72, homozygous UGT1A1*28 excluded, APCDD1L rs7265854 C/C
[8] = N = 72, homozygous UGT1A1*28 excluded, APCDD1L rs7265854 T/T, T/C
[9] = N = 72, homozygous UGT1A1*28 excluded, EDEM3 rs9425343 T/G, G/G
[10] = N = 72, homozygous UGT1A1*28 excluded, EDEM3 rs9425343 T/T
[11] = N = 72, homozygous UGT1A1*28 excluded, R3HCC1 rs2272761 G/A, A/A
[12] = N = 72, homozygous UGT1A1*28 excluded, R3HCC1 rs2272761 G/G
[13] = N = 72, homozygous UGT1A1*28 with reduced amount of irinotecan excluded (Table 4), ACOX1 rs1135640 C/C
[14] = N = 72, homozygous UGT1A1*28 with reduced amount of irinotecan excluded (Table 4), ACOX1 rs1135640 C/G
[15] = N = 72, homozygous UGT1A1*28 with reduced amount of irinotecan excluded (Table 4), ACOX1 rs1135640 G/G
[16] = N = 73, homozygous UGT1A1*28 with reduced amount of irinotecan excluded, APCDD1L rs1980576 A/A
[17] = N = 73, homozygous UGT1A1*28 with reduced amount of irinotecan excluded, APCDD1L rs1980576 A/G
[18] = N = 73, homozygous UGT1A1*28 with reduced amount of irinotecan excluded, APCDD1L rs1980576 G/G
[19] = N = 73, homozygous UGT1A1*28 with reduced amount of irinotecan excluded, APCDD1L rs7265854 A/A
[20] = N = 73, homozygous UGT1A1*28 with reduced amount of irinotecan excluded, APCDD1L rs7265854 A/G
[21] = N = 73, homozygous UGT1A1*28 with reduced amount of irinotecan excluded, APCDD1L rs7265854 G/G
[22] = N = 73, homozygous UGT1A1*28 with reduced amount of irinotecan excluded, CSMD2 rs474474 A/A
[23] = N = 73, homozygous UGT1A1*28 with reduced amount of irinotecan excluded, CSMD2 rs474474 A/G
[24] = N = 73, homozygous UGT1A1*28 with reduced amount of irinotecan excluded, CSMD2 rs474474 G/G
[25] = N = 73, homozygous UGT1A1*28 with reduced amount of irinotecan excluded, EDEM3 rs9425343 G/G
[26] = N = 73, homozygous UGT1A1*28 with reduced amount of irinotecan excluded, EDEM3 rs9425343 T/G
[27] = N = 73, homozygous UGT1A1*28 with reduced amount of irinotecan excluded, EDEM3 rs9425343 T/T
[28] = N = 73, homozygous UGT1A1*28 with reduced amount of irinotecan excluded, GATA2 rs2335052 A/A
[29] = N = 73, homozygous UGT1A1*28 with reduced amount of irinotecan excluded, GATA2 rs2335052 G/A
[30] = N = 73, homozygous UGT1A1*28 with reduced amount of irinotecan excluded, GATA2 rs2335052 G/G
[31] = N = 73, homozygous UGT1A1*28 with reduced amount of irinotecan excluded, MKKS rs1547 C/C
[32] = N = 73, homozygous UGT1A1*28 with reduced amount of irinotecan excluded, MKKS rs1547 C/T
[33] = N = 73, homozygous UGT1A1*28 with reduced amount of irinotecan excluded, MKKS rs1547 T/T
[34] = N = 73, homozygous UGT1A1*28 with reduced amount of irinotecan excluded, OR51I2 rs12577167 A/A
[35] = N = 73, homozygous UGT1A1*28 with reduced amount of irinotecan excluded, OR51I2 rs12577167 A/G
[36] = N = 73, homozygous UGT1A1*28 with reduced amount of irinotecan excluded, OR51I2 rs12577167 G/G
[37] = N = 73, homozygous UGT1A1*28 with reduced amount of irinotecan excluded, R3HCC1 rs2272761 A/A
[38] = N = 73, homozygous UGT1A1*28 with reduced amount of irinotecan excluded, R3HCC1 rs2272761 G/A
[39] = N = 73, homozygous UGT1A1*28 with reduced amount of irinotecan excluded, R3HCC1 rs2272761 G/G

SMILES: CCc1c2c(nc3ccc(OC(=O)N4CCC(N5CCCCC5)CC4)cc13)-c1cc3c(c(=O)n1C2)COC(=O)[C@]3(O)CC [irinotecan, 1,4′-Bipiperidine-1′-carboxylic acid (S)-4,11-diethyl-3,4,12,14-tetrahydro-4-hydroxy-3,14-dioxo-1H-pyrano[3′,4′:6,7]indolizino[1,2-b]quinolin-9-yl ester]
- Toxicity No [1]: 21
- Toxicity Yes [1]: 8
- Toxicity No [2]: 17
- Toxicity Yes [2]: 26
- Toxicity No [3]: 16
- Toxicity Yes [3]: 6
- Toxicity No [4]: 35
- Toxicity Yes [4]: 26
- Toxicity No [5]: 22
- Toxicity Yes [5]: 28
- Toxicity No [6]: 3
- Toxicity Yes [6]: 8
- Toxicity No [7]: 8
- Toxicity Yes [7]: 1
- Toxicity No [8]: 30
- Toxicity Yes [8]: 33
- Toxicity No [9]: 31
- Toxicity Yes [9]: 21
- Toxicity No [10]: 7
- Toxicity Yes [10]: 13
- Toxicity No [11]: 32
- Toxicity Yes [11]: 34
- Toxicity No [12]: 6
- Toxicity Yes [12]: 0
- Toxicity No [13]: 3
- Toxicity Yes [13]: 8
- Toxicity No [14]: 14
- Toxicity Yes [14]: 18
- Toxicity No [15]: 21
- Toxicity Yes [15]: 8
- Toxicity No [16]: 16
- Toxicity Yes [16]: 6
- Toxicity No [17]: 20
- Toxicity Yes [17]: 20
- Toxicity No [18]: 3
- Toxicity Yes [18]: 8
- Toxicity No [19]: 13
- Toxicity Yes [19]: 18
- Toxicity No [20]: 18
- Toxicity Yes [20]: 15
- Toxicity No [21]: 8
- Toxicity Yes [21]: 1
- Toxicity No [22]: 16
- Toxicity Yes [22]: 22
- Toxicity No [23]: 18
- Toxicity Yes [23]: 8
- Toxicity No [24]: 5
- Toxicity Yes [24]: 4
- Toxicity No [25]: 10
- Toxicity Yes [25]: 5
- Toxicity No [26]: 21
- Toxicity Yes [26]: 16
- Toxicity No [27]: 8
- Toxicity Yes [27]: 13
- Toxicity No [28]: 5
- Toxicity Yes [28]: 5
- Toxicity No [29]: 20
- Toxicity Yes [29]: 12
- Toxicity No [30]: 14
- Toxicity Yes [30]: 17
- Toxicity No [31]: 20
- Toxicity Yes [31]: 10
- Toxicity No [32]: 16
- Toxicity Yes [32]: 19
- Toxicity No [33]: 3
- Toxicity Yes [33]: 5
- Toxicity No [34]: 19
- Toxicity Yes [34]: 23
- Toxicity No [35]: 14
- Toxicity Yes [35]: 10
- Toxicity No [36]: 6
- Toxicity Yes [36]: 1
- Toxicity No [37]: 22
- Toxicity Yes [37]: 24
- Toxicity No [38]: 11
- Toxicity Yes [38]: 10
- Toxicity No [39]: 6
- Toxicity Yes [39]: 0
- irinotecan side effect observed (of 68 cases considered to have a low risk of a side effect in view of the UGT1A gene polymorphisms): 29 cases
